Tests used:
[1] = Reduction of CoASH in human hepatocytes at 30 uM pretreated for 30 mins followed by 13C-isoleucine addition and measured after 1 hr by MS/MS analysis relative to control; assay type: functional, Hepatocyte; design: scale not given: the % may be the effect or the level left; conditions: time 90 min, 1.5 h
[2] = Drug metabolism in human hepatocytes derived from methylmalonic acidemia patient assessed as formation of 2,2-dimethylbutanoic acid-CoA pretreated for 30 mins followed by 13C-isoleucine addition and measured after 1 hr by MS/MS analysis relative to control; assay type: ADME, cell-based; conditions: Hepatocyte

CCC(C)(C)C(=O)O [DIMEBUTIC ACID] showed an Activity [1] of -35.2% and an EC50 [2] of 3.5 µM.

Source: ChEMBL document CHEMBL4808180, “Identification of 2,2-Dimethylbutanoic Acid (HST5040), a Clinical Development Candidate for the Treatment of Propionic Acidemia and Methylmalonic Acidemia” (J Med Chem, 2021)
